This is an account of results in patent US12460184B2, “Cell primed with CTGF-D4 and insulin or IGF-1 and use in methods for cardiac tissue repair” (University of Vermont and State Agriculture College, priority 2013, dated 2025).

In test [1] the test system is adult rat CPCs. The test is described as follows: Signal transduction inhibitor studies, CPCs cultured in CdM. The format is cell-based. Particulars: for cell number ratio to control cell number: CPCs in MSC CdM, 48 hrs, control CdM+DMSO = 100%. As to the method: (§1) Adult rat CPCs and cardiac fibroblasts were plated at 500 cells/cm^2 and cultured in their respective growth mediums. Three days after plating, the medium was removed, the wells were washed twice with PBS, and the cells were then exposed to CdM or to fresh serum-free medium (Alpha-MEM). For time course proliferation studies, CdM and serum-free medium were changed every 2 days. In signal transduction inhibitor studies, the following pharmacological inhibitors were used: AG490, inhibitor of Jak2/STAT3 pathway; Stattic, inhibitor of STAT3; LY294002, inhibitor of phosphatidylinositol 3-kinase (PI3K)/Akt pathway; and PD98059, inhibitor of extracellular signal-regulated kinase (ERK). All of the inhibitors were purchased from Calbiochem (Darmstadt, Germany) and were dissolved in dimethyl sulfoxide (DMSO). CPCs were cultured in CdM with the inhibitors or with the equivalent volume of DMSO as a control for 48 hrs. In cell protection studies, 3 days after plating, medium was replaced with either the CdM or serum-free medium and the cells were exposed to hypoxia in a specialized incubator (1% oxygen) for 48 hrs. The hypoxia incubator was a model that measured both CO2 and O2 (Thermo Electron, Forma Series II, model 3130). Oxygen was maintained at 1% by the injection of nitrogen gas and was monitored continuously. Cell numbers were quantified by the fluorescent labeling of nucleic acids (CyQuant dye; Molecular Probes, Carlsbad, CA) and with a microplate fluorescence reader (FL×800; Bio-Tek Instruments Inc., Winooski, VT) set to 480 nm excitation and 520 nm emission. Each experiment was repeated a minimum of 3 times.

For test [2], the system named is adult rat CPCs. The test is described as follows: CPC protection during hypoxia (1% oxygen, 48 hrs). It counts as cell-based. The following applies: for CdM-mediated protection of CPCs under hypoxic conditions: STAT3 inhibitor 10 μM added to CdM; for CPC number after hypoxia: 30 ng/ml alone, control SFM with 1% BSA 9004 cells, mean±SD; for protection of CPCs against 48 hr of hypoxia: 1 ng/ml (each) in SFM. As for the experimental part:
as §1, with “continuously.” for “continuously. Cell numbers were quantified by the fluorescent labeling of nucleic acids (CyQuant dye; Molecular Probes, Carlsbad, CA) and with a microplate fluorescence reader (FL×800; Bio-Tek Instruments Inc., Winooski, VT) set to 480 nm excitation and 520 nm emission. Each experiment was repeated a minimum of 3 times.”
Cell numbers were quantified by the fluorescent labeling of nucleic acids (CyQuant dye; Molecular Probes, Carlsbad, CA) and with a microplate fluorescence reader (FL×800; Bio-Tek Instruments Inc., Winooski, VT) set to 480 nm excitation and 520 nm emission. Each experiment was repeated a minimum of 3 times.

In a further test the test system is Akt. The test is described as follows: Immunoblotting for phosphorylated Akt in CPCs. The format is cell-based, rat. Particulars: recombinant human Insulin, 30 min incubation. As to the method: (§2) Cells were lysed in a buffer that consisted of 0.1% sodium dodecyl sulphate (SDS) and complete protease inhibitor cocktail (Roche, Basel, Switzerland) in PBS. Protein concentration was determined by the DC protein assay (Biorad, Hercules, CA). Twenty μg of protein was separated by SDS-PAGE. After electrophoresis, the gels were electroblotted to polyvinylidene difluoride (PVDF) membranes. All electrophoresis and electroblotting used Novex reagents and systems (Invitrogen, Carlsbad, Calif.). The blots were blocked for 1 hr at RT in 5% nonfat dry milk in PBS with 0.1% Tween 20 (PBST), washed 3×5 min in PBST, and incubated in primary antibodies in PBST with 5% BSA overnight at 4° C. After 3×5 min washes in PBST, the blots were incubated in secondary antibody conjugated to horseradish peroxidase conjugate (1:2000, Sigma) in PBST for 1 hr at RT. Unbound secondary antibody was removed and positive bands were detected with a chemiluminescent reaction. The primary antibodies for immunoblotting were Ki67 (clone SP6, 1:200, Abcam, Cambridge, MA); p-STAT3 (Tyr705, 1:1000), total STAT3 (1:1000), p-Akt (Ser 473, 1:1000)(Cell signaling); and β-actin (1:5000, Sigma).
In general terms: Immunoblotting shows a protein as a band on a membrane.

Test [3] has as its system EPDCs. The test is described as follows: EPDC protection by CTGF-D4 under hypoxia (1% oxygen, 48 hr). The format is cell-based, rat. Particulars: blocker added.
For another test, the system named is STAT3. The test is described as follows: Immunoblotting for phosphorylated STAT3 in CPCs. The format is cell-based, rat. The following applies: 3 ng/ml, 30 min, SFM containing 1% BSA. As to the method: as §2
The subject of a further test is canonical Wnt pathway. The test is described as follows: Canonical Wnt pathway signaling in EPDCs (p-GSK3β, nuclear β-catenin). It counts as cell-based, rat.
The test system of test [4] is EPDCs. The test is described as follows: Ex vivo adhesion assay of EPDCs to fibronectin. It counts as cell-based. The following applies: 40 ng/ml.
For test [5], the system named is EPDCs. The test is described as follows: Western blots for differentiation and adhesion/migration markers in EPDCs. Particulars: exposure to CTGF-D4. It counts as cell-based.

As for `N#C/C(=C/c1ccc(O)c(O)c1)C(=O)NCc1ccccc1` [AG490], the “cell number ratio to control cell number” value in the test on adult rat CPCs [1] (1 μM) turned out to be 96.3±0.9%; with adult rat CPCs [1] (5 μM) it was 89.5±0.9%; with adult rat CPCs [1] (10 μM), 43.4±2.4%. In the test with adult rat CPCs [1] (10 μM, CPCs in CdM from p75MSCs or fibroblasts), the CPC number entry was “inhibitory effect”. Besides, in the test on adult rat CPCs [2], the “CdM-mediated protection of CPCs under hypoxic conditions” value is recorded as “abolished CdM-mediated protection”.

On to `COc1cccc(-c2cc(=O)c3ccccc3o2)c1N` [PD98059], for which the “CPC proliferation in CdM” value in the test with adult rat CPCs [1] (ERK inhibitor) is on record as “did not diminish CPC proliferation”.

As for `O=[N+]([O-])c1ccc2c(c1)S(=O)(=O)C=C2` [Stattic, reference compound], in the test on adult rat CPCs [1] (10 μM, vs DMSO vehicle, day 2 and 4), the “growth of CPCs in p75MSC CdM” value is “abolished”. Also, the “CdM-mediated protection of CPCs under hypoxic conditions” value with adult rat CPCs [2] is listed as “abolished CdM-mediated protection”.

Consider “IGF-1: human Insulin-like growth factor 1”, for which, in the test on adult rat CPCs [2], the “CPC number after hypoxia” value was 14,894±559 cells.

Turning to “Insulin: recombinant human Insulin, dimer of A-chain and B-chain”, the “p-Akt in CPCs” value in the test on Akt is recorded as “induced p-Akt in a dose-responsive manner”. For the same molecule, in the test with adult rat CPCs [2], the “protection of CPCs against 48 hr of hypoxia” value was “did not protect CPCs” and the “CPC number after hypoxia” value was 13,507±1,473 cells. In the test on adult rat CPCs [2] (recombinant human Insulin), the “CPC survival and proliferation” value was “increased also CPC survival and proliferation”.

B1: Dkk-1: a secreted inhibitor of Lrp6 (protein, UniProt O94907 32-266, looked up)
Dickkopf-related protein 1: TLNSVLNSNAIKNLPPPLGGAAGHPGSAVSAAPGILYPGGNKYQTIDNYQPYPCAEDEECGTDEYCASPTRGGDAGVQICLACRKRRKRCMRHAMCCPGNYCKNGICVSSDQNHFRGEIEETITESFGNDHSTLDGYSRRTTLSSKMYHTKGQEGSVCLRSSDCASGLCCARHFWSKICKPVLKEGQVCTKHRRKGSHGLEIFQRCYCGEGLSCRIQKDHHQASNSSRLHTCQRH
B1: in the test on EPDCs [3], the “protection of EPDCs conferred by CTGF-D4” value is “significantly reduced the protection”.

B2: human CTGF: connective tissue growth factor, full-length polypeptide SEQ ID NO: 1 (protein, listed as Homo sapiens)
chain: MTAASMGPVRVAFVVLLALCSRPAVGQNCSGPCRCPDEPAPRCPAGVSLVLDGCGCCRVCAKQLGELCTERDPCDPHKGLFCDFGSPANRKIGVCTAKDGAPCIFGGTVYRSGESFQSSCKYQCTCLDGAVGCMPLCSMDVRLPSPDCPFPRRVKLPGKCCEEWVCDEPKDQTVVGPALAAYRLEDTFGPDPTMIRANCLVQTTEWSACSKTCGMGISTRVTNDNASCRLEKQSRLCMVRPCEADLEENIKKGKKCIRTPKISKPIKFELSGCTSMKTYRAKFCGVCTDGRCCTPHRTTTLPVEFKCPDGEVMKKNMMFIKTCACHYNCPGDNDIFESLYYRKMYGDMA
Consider B2, for which the “p-STAT3 in CPCs” value in the test on STAT3 is recorded as “significantly induced p-STAT3”.

B3: CTGF-D4: recombinant human C-terminal (domain 4) CTGF peptide, SEQ ID NO: 2 (protein, listed as Homo sapiens)
chain: MGKKCIRTPKISKPIKFELSGCTSMKTYRAKFCGVCTDGRCCTPHRTTTLPVEFKCPDGEVMKKNMMFIKTCACHYNCPGDNDIFESLYYRKMYGDMA
Turning to B3, the “protection of CPCs against 48 hr of hypoxia” value in the test on adult rat CPCs [2] was “did not protect CPCs”. For the same molecule, the “signaling through the canonical Wnt pathway (p-GSK3β, nuclear β-catenin)” value with canonical Wnt pathway is recorded as “promoted signaling through the canonical Wnt pathway”. In addition, in the test with EPDCs [4], the “adhesion of EPDCs to fibronectin” value was “promoted adhesion of EPDCs to fibronectin”. For the same molecule, in the test with EPDCs [5], the “EMT-like differentiation (SMA, CD90, ETrB protein levels)” value is reported as “promoted EMT-like differentiation” and the “levels of Von Willebrand Factor” value is “did not seem to be affected”.
